Measurements taken from the supplement of paper PMC10307832.

What was measured:
Assay in all cases: relative viability (nuclei count vs DMSO), 5 days (fraction); higher = more cells survive
[1] = system: NCI-H1666
Procedure, shortened: (§1)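 Lung cancer cell lines were seeded in 1536-well plates and dosed by pin tool the next day, with either a single drug or a fixed anchor-drug dose combined with five library-drug doses (not always all listed) spaced in √10 steps. Five days later, one step fixed the cells and stained their nuclei (final 0.05% Triton X-100, 1% formaldehyde, 1 ug/ml Hoechst), and nuclei were counted on 4× images. Relative viability is the nuclei count in treated wells divided by the count in vehicle wells, and each value is the median of duplicate plates.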

[2] = system: NCI-H1395
Procedure, shortened: as §1

[3] = system: LOU-NH91
Procedure, shortened: as §1

[4] = system: NCI-H2347
Procedure, shortened: as §1

[5] = system: NCI-H23
Procedure, shortened: as §1

[6] = system: HCC-44
Procedure, shortened: as §1

[7] = system: BEN
Procedure, shortened: as §1

[8] = system: NCI-H2126
Procedure, shortened: as §1

[9] = system: NCI-H2087
Procedure, shortened: as §1

[10] = system: 201T
Procedure, shortened: as §1

[11] = system: NCI-H2023
Procedure, shortened: as §1

[12] = system: NCI-H2009
Procedure, shortened: as §1

[13] = system: HARA
Procedure, shortened: as §1

[14] = system: NCI-H1993
Procedure, shortened: as §1

[15] = system: NCI-H838
Procedure, shortened: as §1

[16] = system: NCI-H441
Procedure, shortened: as §1

[17] = system: NCI-H3122
Procedure, shortened: as §1

[18] = system: NCI-H647
Procedure, shortened: as §1

[19] = system: NCI-H727
Procedure, shortened: as §1

[20] = system: NCI-H596
Procedure, shortened: as §1

[21] = system: EMC-BAC-2
Procedure, shortened: as §1

With `COc1cc(N2CCC(C(N)=O)CC2)ccc1Nc1nc(N)c(Cl)c(Nc2ccccc2S(=O)(=O)C(C)C)n1` [HG-5-88-01] + CC1(C)CCC(c2ccc(Cl)cc2)=C(CN2CCN(c3ccc(C(=O)NS(=O)(=O)c4ccc(N[C@H](CCN5CCOCC5)CSc5ccccc5)c(S(=O)(=O)C(F)(F)F)c4)cc3)CC2)C1 [Navitoclax] (partner 0.5 µM) the relative viability ([1]; first compound 0.04 µM) was 1.14, the relative viability ([1]; first compound 0.1265 µM) was 1.01 and the relative viability ([1]; first compound 0.4 µM) was 1.01. For the same compound, the relative viability ([1]; first compound 1.265 µM) was 0.877, the relative viability ([1]; first compound 4 µM) was 0.603 and the relative viability ([2]; first compound 0.04 µM) was 1.08. It also gave a relative viability ([2]; first compound 0.1265 µM) of 1.18, a relative viability ([2]; first compound 0.4 µM) of 1.25 and a relative viability ([2]; first compound 1.265 µM) of 1.03. For the same compound, the relative viability ([2]; first compound 4 µM) was 1.09, the relative viability ([3]; first compound 0.04 µM) was 0.72 and the relative viability ([3]; first compound 0.1265 µM) was 0.693. The relative viability ([3]; first compound 0.4 µM) was 0.605, the relative viability ([3]; first compound 1.265 µM) was 0.378 and the relative viability ([3]; first compound 4 µM) was 0.468. It also gave a relative viability ([4]; first compound 0.04 µM) of 0.786, a relative viability ([4]; first compound 0.1265 µM) of 0.863 and a relative viability ([4]; first compound 0.4 µM) of 0.893. It also gave a relative viability ([4]; first compound 1.265 µM) of 0.696, a relative viability ([4]; first compound 4 µM) of 0.685 and a relative viability ([5]; first compound 0.04 µM) of 0.945. It also gave a relative viability ([5]; first compound 0.1265 µM) of 0.932, a relative viability ([5]; first compound 0.4 µM) of 0.809 and a relative viability ([5]; first compound 1.265 µM) of 0.815. The relative viability ([5]; first compound 4 µM) was 0.659, the relative viability ([6]; first compound 0.04 µM) was 1.07 and the relative viability ([6]; first compound 0.1265 µM) was 1.03. For the same compound, the relative viability ([6]; first compound 0.4 µM) was 0.77, the relative viability ([6]; first compound 1.265 µM) was 0.922 and the relative viability ([6]; first compound 4 µM) was 0.846. For the same compound, the relative viability ([7]; first compound 0.04 µM) was 0.0887, the relative viability ([7]; first compound 0.1265 µM) was 0.0551 and the relative viability ([7]; first compound 0.4 µM) was 0.0596. It also gave a relative viability ([7]; first compound 1.265 µM) of 0.0568, a relative viability ([7]; first compound 4 µM) of 0.0605 and a relative viability ([8]; first compound 0.04 µM) of 0.88. For the same compound, the relative viability ([8]; first compound 0.1265 µM) was 0.882, the relative viability ([8]; first compound 0.4 µM) was 0.753 and the relative viability ([8]; first compound 1.265 µM) was 0.84. It also gave a relative viability ([8]; first compound 4 µM) of 0.794, a relative viability ([9]; first compound 0.04 µM) of 0.902 and a relative viability ([9]; first compound 0.1265 µM) of 1.06. It also gave a relative viability ([9]; first compound 0.4 µM) of 1.03, a relative viability ([9]; first compound 1.265 µM) of 0.971 and a relative viability ([9]; first compound 4 µM) of 0.943. It also gave a relative viability ([10]; first compound 0.04 µM) of 1.22, a relative viability ([10]; first compound 0.1265 µM) of 1.22 and a relative viability ([10]; first compound 0.4 µM) of 1.28. For the same compound, the relative viability ([10]; first compound 1.265 µM) was 1.18, the relative viability ([10]; first compound 4 µM) was 1.17 and the relative viability ([11]; first compound 0.04 µM) was 1.01. For the same compound, the relative viability ([11]; first compound 0.1265 µM) was 0.94, the relative viability ([11]; first compound 0.4 µM) was 0.934 and the relative viability ([11]; first compound 1.265 µM) was 0.787. It also gave a relative viability ([11]; first compound 4 µM) of 0.804, a relative viability ([12]; first compound 0.04 µM) of 1.2 and a relative viability ([12]; first compound 0.1265 µM) of 1.32. For the same compound, the relative viability ([12]; first compound 0.4 µM) was 1.15, the relative viability ([12]; first compound 1.265 µM) was 1.06 and the relative viability ([12]; first compound 4 µM) was 1.15. It also gave a relative viability ([13]; first compound 0.04 µM) of 1.16, a relative viability ([13]; first compound 0.1265 µM) of 1.14 and a relative viability ([13]; first compound 0.4 µM) of 1.13. For the same compound, the relative viability ([13]; first compound 1.265 µM) was 1.19, the relative viability ([13]; first compound 4 µM) was 1.18 and the relative viability ([14]; first compound 0.04 µM) was 1.06. For the same compound, the relative viability ([14]; first compound 0.1265 µM) was 0.976, the relative viability ([14]; first compound 0.4 µM) was 0.911 and the relative viability ([14]; first compound 1.265 µM) was 0.736. For the same compound, the relative viability ([14]; first compound 4 µM) was 0.735, the relative viability ([15]; first compound 0.04 µM) was 1.09 and the relative viability ([15]; first compound 0.1265 µM) was 1.2. For the same compound, the relative viability ([15]; first compound 0.4 µM) was 1.07, the relative viability ([15]; first compound 1.265 µM) was 0.973 and the relative viability ([15]; first compound 4 µM) was 0.904. The relative viability ([16]; first compound 0.04 µM) was 0.661, the relative viability ([16]; first compound 0.1265 µM) was 0.675 and the relative viability ([16]; first compound 0.4 µM) was 0.714. The relative viability ([16]; first compound 1.265 µM) was 0.609, the relative viability ([16]; first compound 4 µM) was 0.679 and the relative viability ([17]; first compound 0.04 µM) was 0.905. It also gave a relative viability ([17]; first compound 0.1265 µM) of 0.611, a relative viability ([17]; first compound 0.4 µM) of 0.444 and a relative viability ([17]; first compound 1.265 µM) of 0.198. For the same compound, the relative viability ([17]; first compound 4 µM) was 0.255, the relative viability ([18]; first compound 0.04 µM) was 1.19 and the relative viability ([18]; first compound 0.1265 µM) was 1.26. For the same compound, the relative viability ([18]; first compound 0.4 µM) was 1.24, the relative viability ([18]; first compound 1.265 µM) was 1.27 and the relative viability ([18]; first compound 4 µM) was 1.13. The relative viability ([19]; first compound 0.04 µM) was 0.532, the relative viability ([19]; first compound 0.1265 µM) was 0.416 and the relative viability ([19]; first compound 0.4 µM) was 0.469. The relative viability ([19]; first compound 1.265 µM) was 0.224, the relative viability ([19]; first compound 4 µM) was 0.0929 and the relative viability ([20]; first compound 0.04 µM) was 0.943. It also gave a relative viability ([20]; first compound 0.1265 µM) of 0.98, a relative viability ([20]; first compound 0.4 µM) of 1.06 and a relative viability ([20]; first compound 1.265 µM) of 1.02. It also gave a relative viability ([20]; first compound 4 µM) of 0.901, a relative viability ([21]; first compound 0.04 µM) of 1.11 and a relative viability ([21]; first compound 0.1265 µM) of 1.23. It also gave a relative viability ([21]; first compound 0.4 µM) of 1.12, a relative viability ([21]; first compound 1.265 µM) of 1.05 and a relative viability ([21]; first compound 4 µM) of 1.22.

With `CC(C)Oc1cc(Nc2nc(N[C@@H](C)c3ccc(F)cn3)ncc2Cl)n[nH]1` [AZ23] + CC1(C)CCC(c2ccc(Cl)cc2)=C(CN2CCN(c3ccc(C(=O)NS(=O)(=O)c4ccc(N[C@H](CCN5CCOCC5)CSc5ccccc5)c(S(=O)(=O)C(F)(F)F)c4)cc3)CC2)C1 [Navitoclax] (partner 0.5 µM) the relative viability ([1]; first compound 0.01 µM) was 0.79, the relative viability ([1]; first compound 0.03162 µM) was 0.827 and the relative viability ([1]; first compound 0.3162 µM) was 1. It also gave a relative viability ([2]; first compound 0.03162 µM) of 1.12, a relative viability ([2]; first compound 0.3162 µM) of 1.21 and a relative viability ([3]; first compound 0.01 µM) of 0.619. The relative viability ([3]; first compound 0.03162 µM) was 0.744, the relative viability ([3]; first compound 0.3162 µM) was 0.746 and the relative viability ([4]; first compound 0.01 µM) was 0.858. It also gave a relative viability ([4]; first compound 0.03162 µM) of 0.755, a relative viability ([4]; first compound 0.3162 µM) of 0.818 and a relative viability ([5]; first compound 0.03162 µM) of 0.981. For the same compound, the relative viability ([5]; first compound 0.3162 µM) was 0.69, the relative viability ([6]; first compound 0.01 µM) was 1.31 and the relative viability ([6]; first compound 0.03162 µM) was 1. It also gave a relative viability ([6]; first compound 0.3162 µM) of 0.927, a relative viability ([7]; first compound 0.01 µM) of 0.0781 and a relative viability ([7]; first compound 0.03162 µM) of 0.0578. For the same compound, the relative viability ([7]; first compound 0.3162 µM) was 0.0639, the relative viability ([8]; first compound 0.01 µM) was 0.835 and the relative viability ([8]; first compound 0.03162 µM) was 0.924. For the same compound, the relative viability ([8]; first compound 0.3162 µM) was 0.774, the relative viability ([9]; first compound 0.01 µM) was 1.14 and the relative viability ([9]; first compound 0.03162 µM) was 1.12. It also gave a relative viability ([9]; first compound 0.3162 µM) of 0.914, a relative viability ([10]; first compound 0.01 µM) of 1.23 and a relative viability ([10]; first compound 0.03162 µM) of 1.22. It also gave a relative viability ([10]; first compound 0.3162 µM) of 1.17, a relative viability ([11]; first compound 0.03162 µM) of 1.1 and a relative viability ([11]; first compound 0.3162 µM) of 1.05. For the same compound, the relative viability ([12]; first compound 0.01 µM) was 1.16, the relative viability ([12]; first compound 0.03162 µM) was 1.18 and the relative viability ([12]; first compound 0.3162 µM) was 1.19. The relative viability ([13]; first compound 0.01 µM) was 0.973, the relative viability ([13]; first compound 0.03162 µM) was 1.16 and the relative viability ([13]; first compound 0.3162 µM) was 1.16. For the same compound, the relative viability ([14]; first compound 0.01 µM) was 0.688, the relative viability ([14]; first compound 0.3162 µM) was 0.916 and the relative viability ([15]; first compound 0.01 µM) was 1.15. It also gave a relative viability ([15]; first compound 0.03162 µM) of 1.45, a relative viability ([15]; first compound 0.3162 µM) of 1.19 and a relative viability ([16]; first compound 0.01 µM) of 0.518. It also gave a relative viability ([16]; first compound 0.03162 µM) of 0.755, a relative viability ([16]; first compound 0.3162 µM) of 0.769 and a relative viability ([17]; first compound 0.01 µM) of 1.11. For the same compound, the relative viability ([17]; first compound 0.03162 µM) was 1.02, the relative viability ([17]; first compound 0.3162 µM) was 1.08 and the relative viability ([18]; first compound 0.01 µM) was 1.46. It also gave a relative viability ([18]; first compound 0.03162 µM) of 1.51, a relative viability ([18]; first compound 0.3162 µM) of 1.24 and a relative viability ([19]; first compound 0.01 µM) of 0.382. For the same compound, the relative viability ([19]; first compound 0.03162 µM) was 0.506, the relative viability ([19]; first compound 0.3162 µM) was 0.385 and the relative viability ([20]; first compound 0.01 µM) was 0.854. The relative viability ([20]; first compound 0.03162 µM) was 1.04, the relative viability ([20]; first compound 0.3162 µM) was 0.747 and the relative viability ([21]; first compound 0.01 µM) was 1.59. The relative viability ([21]; first compound 0.03162 µM) was 1.25 and the relative viability ([21]; first compound 0.3162 µM) was 1.19.
